# Measured values: PubChem BioAssay (NCI)
#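 Compound exposure: 48 hours, 5 concentrations, 96-well plates. TGI is the concentration that stops growth completely.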
# How the values were obtained:
# Test in all cases: NCI tumour cell line growth inhibition, 48 h
# 786-0 renal = tested on: 786-0 renal
# A498 renal = tested on: A498 renal
# A549 NSCLC = tested on: A549 NSCLC
# ACHN renal = tested on: ACHN renal
# BT-549 breast = tested on: BT-549 breast
# CAKI-1 renal = tested on: CAKI-1 renal
# CCRF-CEM leukemia = tested on: CCRF-CEM leukemia
# COLO 205 colon = tested on: COLO 205 colon
# DU-145 prostate = tested on: DU-145 prostate
# EKVX NSCLC = tested on: EKVX NSCLC
# HCC-2998 colon = tested on: HCC-2998 colon
# HCT-116 colon = tested on: HCT-116 colon
# HCT-15 colon = tested on: HCT-15 colon
# HL-60(TB) leukemia = tested on: HL-60(TB) leukemia
# HOP-62 NSCLC = tested on: HOP-62 NSCLC
# HOP-92 NSCLC = tested on: HOP-92 NSCLC
# HS 578T breast = tested on: HS 578T breast
# HT29 colon = tested on: HT29 colon
# IGROV1 ovarian = tested on: IGROV1 ovarian
# K-562 leukemia = tested on: K-562 leukemia
# KM12 colon = tested on: KM12 colon
# LOX IMVI melanoma = tested on: LOX IMVI melanoma
# M14 melanoma = tested on: M14 melanoma
# MALME-3M melanoma = tested on: MALME-3M melanoma
# MCF7 breast = tested on: MCF7 breast
# MDA-MB-231 breast = tested on: MDA-MB-231 breast
# MDA-MB-435 = tested on: MDA-MB-435
# MDA-N = tested on: MDA-N
# MOLT-4 leukemia = tested on: MOLT-4 leukemia
# NCI-H226 lung = tested on: NCI-H226 lung
# NCI-H460 lung = tested on: NCI-H460 lung
# NCI/ADR-RES ovarian = tested on: NCI/ADR-RES ovarian
# OVCAR-3 ovarian = tested on: OVCAR-3 ovarian
# OVCAR-4 ovarian = tested on: OVCAR-4 ovarian
# OVCAR-5 ovarian = tested on: OVCAR-5 ovarian
# OVCAR-8 ovarian = tested on: OVCAR-8 ovarian
# PC-3 prostate = tested on: PC-3 prostate
# RXF 393 renal = tested on: RXF 393 renal
# SF-268 CNS = tested on: SF-268 CNS
# SF-295 CNS = tested on: SF-295 CNS
# SF-539 CNS = tested on: SF-539 CNS
# SK-MEL-2 melanoma = tested on: SK-MEL-2 melanoma
# SK-MEL-28 melanoma = tested on: SK-MEL-28 melanoma
# SK-MEL-5 melanoma = tested on: SK-MEL-5 melanoma
# SK-OV-3 ovarian = tested on: SK-OV-3 ovarian
# SN12C renal = tested on: SN12C renal
# SNB-19 CNS = tested on: SNB-19 CNS
# SNB-75 CNS = tested on: SNB-75 CNS
# SR leukemia = tested on: SR leukemia
# SW-620 colon = tested on: SW-620 colon
# TK-10 renal = tested on: TK-10 renal
# UACC-257 melanoma = tested on: UACC-257 melanoma
# UACC-62 melanoma = tested on: UACC-62 melanoma
# UO-31 renal = tested on: UO-31 renal
# NCI-H23 lung = tested on: NCI-H23 lung
# NCI-H522 lung = tested on: NCI-H522 lung
# RPMI-8226 leukemia = tested on: RPMI-8226 leukemia
# T-47D breast = tested on: T-47D breast
# U251 CNS = tested on: U251 CNS
compound,measurement,setting,value
Cc1cn(C2CC(OC(c3ccccc3)(c3ccccc3)c3ccccc3)C(COC(c3ccccc3)(c3ccccc3)c3ccccc3)O2)c(=O)[nH]c1=O (centres undefined),TGI,786-0 renal,> 100000 nM
same,TGI,A498 renal,73.8 µM
same,TGI,A549 NSCLC,> 100 µM
same,TGI,ACHN renal,> 100 µM
same,TGI,BT-549 breast,98.4 µM
same,TGI,CAKI-1 renal,> 100 µM
same,TGI,CCRF-CEM leukemia,> 100 µM
same,TGI,COLO 205 colon,> 100 µM
same,TGI,DU-145 prostate,> 100 µM
same,TGI,EKVX NSCLC,> 100 µM
same,TGI,HCC-2998 colon,> 100 µM
same,TGI,HCT-116 colon,> 100 µM
same,TGI,HCT-15 colon,> 100000 nM
same,TGI,HL-60(TB) leukemia,> 100 µM
same,TGI,HOP-62 NSCLC,> 100 µM
same,TGI,HOP-92 NSCLC,83.6 µM
same,TGI,HS 578T breast,> 100 µM
same,TGI,HT29 colon,> 100 µM
same,TGI,IGROV1 ovarian,> 100 µM
same,TGI,K-562 leukemia,> 100 µM
same,TGI,KM12 colon,> 100 µM
same,TGI,LOX IMVI melanoma,> 100 µM
same,TGI,M14 melanoma,> 100 µM
same,TGI,MALME-3M melanoma,> 100 µM
same,TGI,MCF7 breast,> 100 µM
same,TGI,MDA-MB-231 breast,> 100000 nM
same,TGI,MDA-MB-435,> 100 µM
same,TGI,MDA-N,> 100 µM
same,TGI,MOLT-4 leukemia,> 100 µM
same,TGI,NCI-H226 lung,88.7 µM
same,TGI,NCI-H460 lung,> 100 µM
same,TGI,NCI/ADR-RES ovarian,> 100 µM
same,TGI,OVCAR-3 ovarian,> 100 µM
same,TGI,OVCAR-4 ovarian,> 100 µM
same,TGI,OVCAR-5 ovarian,> 100 µM
same,TGI,OVCAR-8 ovarian,> 100 µM
same,TGI,PC-3 prostate,> 100000 nM
same,TGI,RXF 393 renal,> 100 µM
same,TGI,SF-268 CNS,> 100 µM
same,TGI,SF-295 CNS,> 100 µM
same,TGI,SF-539 CNS,> 100 µM
same,TGI,SK-MEL-2 melanoma,> 100 µM
same,TGI,SK-MEL-28 melanoma,> 100 µM
same,TGI,SK-MEL-5 melanoma,> 100 µM
same,TGI,SK-OV-3 ovarian,> 100 µM
same,TGI,SN12C renal,> 100 µM
same,TGI,SNB-19 CNS,> 100 µM
same,TGI,SNB-75 CNS,> 100 µM
same,TGI,SR leukemia,> 100 µM
same,TGI,SW-620 colon,> 100 µM
same,TGI,TK-10 renal,> 100 µM
same,TGI,UACC-257 melanoma,> 100 µM
same,TGI,UACC-62 melanoma,> 100 µM
same,TGI,UO-31 renal,> 100 µM
COc1ccc(CN2C(=O)C(=O)N(C)C2=O)c2ccccc12,TGI,A498 renal,> 10 µM
same,TGI,A549 NSCLC,> 10 µM
same,TGI,ACHN renal,> 10 µM
same,TGI,CAKI-1 renal,> 10 µM
same,TGI,CCRF-CEM leukemia,> 10 µM
same,TGI,COLO 205 colon,> 10 µM
same,TGI,DU-145 prostate,> 10 µM
same,TGI,EKVX NSCLC,> 10 µM
same,TGI,HCC-2998 colon,> 10 µM
same,TGI,HCT-116 colon,> 10 µM
same,TGI,HCT-15 colon,> 10000 nM
same,TGI,HL-60(TB) leukemia,> 10 µM
same,TGI,HOP-62 NSCLC,> 10 µM
same,TGI,HS 578T breast,> 10 µM
same,TGI,HT29 colon,> 10 µM
same,TGI,IGROV1 ovarian,> 10 µM
same,TGI,K-562 leukemia,> 10 µM
same,TGI,KM12 colon,> 10 µM
same,TGI,LOX IMVI melanoma,> 10 µM
same,TGI,M14 melanoma,> 10 µM
same,TGI,MALME-3M melanoma,> 10 µM
same,TGI,MCF7 breast,> 10 µM
same,TGI,MDA-MB-231 breast,> 10000 nM
same,TGI,MDA-MB-435,> 10 µM
same,TGI,MDA-N,> 10 µM
same,TGI,MOLT-4 leukemia,> 10 µM
same,TGI,NCI-H226 lung,> 10 µM
same,TGI,NCI-H23 lung,> 10 µM
same,TGI,NCI-H460 lung,> 10 µM
same,TGI,NCI-H522 lung,> 10 µM
same,TGI,NCI/ADR-RES ovarian,> 10 µM
same,TGI,OVCAR-3 ovarian,> 10 µM
same,TGI,OVCAR-4 ovarian,> 10 µM
same,TGI,OVCAR-5 ovarian,> 10 µM
same,TGI,OVCAR-8 ovarian,> 10 µM
same,TGI,PC-3 prostate,> 10000 nM
same,TGI,RPMI-8226 leukemia,> 10 µM
same,TGI,RXF 393 renal,> 10 µM
same,TGI,SF-268 CNS,> 10 µM
same,TGI,SF-295 CNS,> 10 µM
same,TGI,SF-539 CNS,> 10 µM
same,TGI,SK-MEL-2 melanoma,> 10 µM
same,TGI,SK-MEL-28 melanoma,> 10 µM
same,TGI,SK-MEL-5 melanoma,> 10 µM
same,TGI,SK-OV-3 ovarian,> 10 µM
same,TGI,SN12C renal,> 10 µM
same,TGI,SNB-19 CNS,> 10 µM
same,TGI,SNB-75 CNS,> 10 µM
same,TGI,SR leukemia,> 10 µM
same,TGI,SW-620 colon,> 10 µM
same,TGI,T-47D breast,> 10 µM
same,TGI,TK-10 renal,> 10 µM
same,TGI,U251 CNS,> 10000 nM
same,TGI,UACC-62 melanoma,> 10 µM
same,TGI,UO-31 renal,> 10 µM
COC(=O)c1cc2c3c(cc(NCCN)c2[nH]1)N(C(=O)c1cc2cc(OC)c(OC)c(OC)c2[nH]1)CC3CCl (centres undefined),TGI,786-0 renal,283 nM
same,TGI,A549 NSCLC,0.481 µM
same,TGI,ACHN renal,0.251 µM
same,TGI,COLO 205 colon,0.146 µM
same,TGI,DU-145 prostate,0.0516 µM
same,TGI,EKVX NSCLC,0.827 µM
same,TGI,HCC-2998 colon,0.182 µM
same,TGI,HCT-116 colon,0.0256 µM
same,TGI,HCT-15 colon,1420 nM
same,TGI,HOP-62 NSCLC,0.48 µM
same,TGI,HT29 colon,0.213 µM
same,TGI,K-562 leukemia,> 100 µM
same,TGI,M14 melanoma,0.253 µM
same,TGI,MALME-3M melanoma,0.123 µM
same,TGI,MDA-MB-231 breast,467 nM
same,TGI,MDA-MB-435,0.293 µM
same,TGI,MDA-N,0.207 µM
same,TGI,NCI-H226 lung,0.178 µM
same,TGI,NCI-H460 lung,0.536 µM
same,TGI,OVCAR-3 ovarian,0.569 µM
same,TGI,OVCAR-4 ovarian,0.31 µM
same,TGI,OVCAR-5 ovarian,0.42 µM
same,TGI,PC-3 prostate,1010 nM
same,TGI,SF-295 CNS,0.858 µM
same,TGI,SK-MEL-2 melanoma,0.164 µM
same,TGI,SK-MEL-28 melanoma,0.48 µM
same,TGI,SK-MEL-5 melanoma,0.165 µM
same,TGI,SK-OV-3 ovarian,5.12 µM
same,TGI,SNB-19 CNS,0.0517 µM
same,TGI,TK-10 renal,2.95 µM
same,TGI,U251 CNS,36.6 nM
same,TGI,UACC-62 melanoma,0.176 µM
same,TGI,UO-31 renal,0.65 µM
CCN(CC)CCCNc1ccc([N+](=O)[O-])c2nc3ccc(OC)cc3c(NCCCN(CC)CC)c12,TGI,786-0 renal,2760 nM
same,TGI,A549 NSCLC,3.73 µM
same,TGI,CAKI-1 renal,> 10 µM
same,TGI,CCRF-CEM leukemia,7.37 µM
same,TGI,COLO 205 colon,> 10 µM
same,TGI,DU-145 prostate,> 10 µM
same,TGI,EKVX NSCLC,> 10 µM
same,TGI,HCC-2998 colon,3.03 µM
same,TGI,HCT-15 colon,2790 nM
same,TGI,HL-60(TB) leukemia,1.04 µM
same,TGI,HOP-62 NSCLC,> 10 µM
same,TGI,HT29 colon,3.42 µM
same,TGI,IGROV1 ovarian,> 10 µM
same,TGI,K-562 leukemia,3.75 µM
same,TGI,KM12 colon,3.05 µM
same,TGI,LOX IMVI melanoma,2.69 µM
same,TGI,M14 melanoma,> 10 µM
same,TGI,MALME-3M melanoma,> 10 µM
same,TGI,MCF7 breast,3.56 µM
same,TGI,MDA-MB-231 breast,2840 nM
same,TGI,MDA-N,> 10 µM
same,TGI,NCI-H23 lung,4.76 µM
same,TGI,OVCAR-8 ovarian,2.7 µM
same,TGI,PC-3 prostate,2900 nM
same,TGI,RPMI-8226 leukemia,5.81 µM
same,TGI,RXF 393 renal,4.05 µM
same,TGI,SF-268 CNS,> 10 µM
same,TGI,SK-MEL-28 melanoma,> 10 µM
same,TGI,SK-MEL-5 melanoma,> 10 µM
same,TGI,SK-OV-3 ovarian,> 10 µM
same,TGI,SN12C renal,5.89 µM
same,TGI,SNB-75 CNS,> 10 µM
same,TGI,SW-620 colon,3.98 µM
same,TGI,T-47D breast,> 10 µM
same,TGI,TK-10 renal,> 10 µM
same,TGI,UACC-257 melanoma,> 10 µM
same,TGI,UACC-62 melanoma,> 10 µM
